According to patent US20100248229A1, “INVITRO HUMAN EMBRYONIC MODEL AND A METHOD THEREOF” (Stempeutics Research Private Limited, priority 2007, published 2010):
“Also recorded” adds a separate entry of the source.

Tests used:
Assay type in all cases: cell-based, human
EBs [1] = test: Effect on the germ lineages: RT-PCR of pluripotency and lineage markers in four day old EBs; settings: 12 pg/ml for 2 to 4 days
Experimental: Day 4 to 10 old EBs were maintained for 2 to 10 days in presence or absence of various (atleast 8 different) dilutions of the drug supplemented to the standard EB culture media. At the end of the incubation period the EBs were collected and the RNA is isolated from both the control and treated groups. The RNA was used for RT-PCR analysis of a set of developmentally important genes, pluripotency markers like (Nanog, Oct4, Sox2, and HMGB 1), lineage markers for ectoderm, endoderm, mesoderm and trophectoderm listed in table 1, 2, 3, 4, and also for a set of epigenetic signature genes (table nos. 6-7) identified by applicant. Alteration in the expression patterns of these genes in presence or absence of the compound in these EBs indicates their embryotoxic effect and potential to perturb the formation of specific or multiple lineages.
Four day old EBs were exposed to gram negative bacterial endotoxins/LPS at a concentration of 12 pg/ml for 2 to 4 days. The EBs were collected and analysed for pluripotency markers like Oct4, Sox2, HMGB1, and lineage markers like Nestin, PIII-tubulin, GATA4, BMP2, Brachury, Hand1 and BMP4 were studied, by RT-PCR. […] HMGB 1 expression was not found in these normal EBs. […] However, the mesoderm markers BMP2, Hand1, BMP4 and Brachury were silenced in the endotoxin treated EBs. […] This also explains many birth defects, which occurs as a result of gram negative bacterial infections. The expression of the LPS inducible cytokine and pluripotency associated gene HMGB1 in the EBs upon LPS exposure indicate its probable role in the formation of poorly formed embryos during such infections.

[2] = tested on: EBs derived from hESC line HUES9; test: Comet assay: DNA fragmentation in EBs; settings: EBs exposed for 48 hours
Experimental: Comet assay: Detection of DNA damage in individual EBs was carried out with a slight modification of the method described by. Comet tail length was calculated by measuring the streak of DNA comet tail between the edge of the embryoid bodies till the end of tail using Nikon Eclipse 90i microscope (Nikon Corporation, Japan) and Image-Pro Express software (Media Cybernetics, Inc, Silver Spring, Md.).

[3] = tested on: EBs derived from hESC line HUES9; test: Immunofluorescence localization of HMGB1 and Brachury in EBs; settings: for Brachury protein expression (immunofluorescence): day 4.5, normal EBs positive
From the text: Exposure of EBs to LPS: EBs at day-2.5 were exposed to 12.5 pg/ml of Endotoxin/lipopolysaccharide (LPS) (Sigma) for 48 hrs supplemented in culture medium. […] Post exposure, the control and endotoxin treated EBs were divided in two groups. One group was lysed in TRIZOL for RNA isolation and the other group was fixed in 4% paraformaldehyde for immunofluorescence. The expression profile of the ectoderm, endoderm, mesoderm and trophectoderm lineage markers like PHI-tubulin, GATA4, BMP2, Brachury and β-hCG etc. were studied by RT-PCR and Immunofluorescence. The expression of the LPS-inducible and pluripotency related DNA binding protein HMGB1 was also studied in both the control and treated EBs.
Immunofluorescence and Cell counting: HESCs were grown on coverslips coated with MEFs and then fixed with 4% paraformaldehyde and 5% sucrose (Sigma) followed by permeabilization in 0.2% Triton X100 (Sigma). The slides were then incubated with primary antibodies 1:500 dilution of SSEA4 (Chemicon, Calif., USA), 5 ug/ml Nanog (Santa Cruz Biotechnology, CA, USA), 10 μg/ml Brachury (R&D Systems Inc. Minneapolis, USA), and 1.5 μg/ml HMGB1 (Sigma) overnight at 4° C. After washing thrice with PBS, fluorescein isothiocyanate/Texas red-labeled Secondary antibodies against the primary goat/rabbit/mouse were added as 1:500 dilutions and incubated for 2 hours. DAPI (Sigma) was used for nuclear staining and then washed with PBS. The negative controls were done without primary antibodies. Slides were mounted with DABCC (Sigma) and images were acquired using Nikon Eclipse 90i microscope (Nikon Corporation, Japan) and Image-Pro Express software (Media Cybernetics, Inc, Silver Spring, Md.). The results were then compared with the control cells (non-LPS treated EBs). To count the number of cells per EB, the number of DAPI stained nuclei were counted in 10 each of the control and LPS treated EBs.

EBs [4] = test: Differentiation of EBs into tissues of mesoderm origin / osteoblast differentiation (von Kossa, Alizarin Red); settings: for osteoblast differentiation (mineralization by Alizarin Red and von Kossa staining): 15 days of differentiation
From the text: The EBs were used to direct their differentiation into tissues of the ectoderm (nerve, skin), endoderm (pancreas, lungs), mesoderm (bone, blood, cardiomyocytes) and trophectoderm lineages (placenta) using known and published methods (Bader et al., 2000; Buttery et al., 2001; Lumelsky et al., 2001; Lee et al; 2000; Schuliner et al., 2001). A description of the methods used for differentiation of hESC to various tissues of the ectoderm, endoderm, mesoderm and trophectoderm lineages can be found in Hyslop et al. (2005). The ability of the compound/drug to inhibit the differentiation of EBs into these tissues of any particular type will indicate the possibility of developmental defect induced by the drug.
Endotoxins/LPS silenced the expression of mesoderm specific genes in the EBs. […] To confirm this effect the LPS exposed EBs were directed towards tissues of mesoderm origin like cardiomyocytes, blood or bone. […] This indicates the possibility of defects in the blood, bone or heart formation as a result of endotoxin exposure during fetal development.
EBs derived from the human embryonic stem cell (hESC) line HUES9 were exposed to 12.5 pg/ml of LPS for 48 hrs. The expression profile of the ectoderm, endoderm, mesoderm and trophectoderm lineage markers like βIII-tubulin, GATA4, BMP2, Brachury and β-hCG were studied, by RT-PCR and Immunofluorescence. Inhibition of mesoderm induction was confirmed by RT-PCR analysis for hANP, cTnT, ABCG2, GATA2, BMP4 and HAND1. Osteoblast differentiation was induced in the EBs, and confirmed by von Kosa and Alizarin red staining. A comet assay was also done to assess the degree of apoptosis in these EBs.
Osteoblast differentiation: To assess the differentiating potential of EBs towards tissues of mesoderm origin, embryoid bodies were produced and exposed to LPS as described above. The normal and LPS treated EBs, 30 each, were subjected to osteoblast differentiation from day 5.5 onwards. To stimulate differentiation into osteogenic cells, ES medium containing 10^−8 M Dexamethasone, 50 μg/ml L-ascorbic acid and 5 mM Sodium-beta-glycophosphate was used. The medium was changed every 2-3 days and the differentiation was continued upto 15 days. The osteoblast differentiation was characterized by identifying mineralized areas using von Kossa and Alizarin Red staining. These were visualized and acquired using a Nikon Eclipse 90i microscope (Nikon Corporation, Japan).

[5] = EBs pre-exposed to 12.5 pg/ml for 48 hrs

Substance: lipopolysaccharide [LPS]
- expression of Nestin, βIII-tubulin and GATA4 (RT-PCR) (EBs [1]): positive expression
- expression of mesoderm markers BMP2, Hand1, BMP4 and Brachury (RT-PCR) (EBs [1]): silenced
- expression of HMGB1 (RT-PCR) (EBs [1]; not found in normal EBs): positive expression
- DNA tailing or fragmentation compared to control [2]: more DNA tailing or fragmentation
- DNA tailing or fragmentation (comet tail length, average) ([2]; control 2.48±1.0701 μm): 21.48±12.443 μm
- Brachury protein expression (immunofluorescence) ([3]; 12.5 pg/ml for 48 hrs): no signals
- Brachury protein expression (immunofluorescence) ([3]; 12.5 pg/ml for 48 hrs, listed as lipopolysaccharides): loss of expression
- localization of HMGB1 (immunofluorescence) ([3]; 12.5 pg/ml for 48 hrs, normal EBs lacked signals): cytoplasmic localization; also recorded: localized in the cytoplasm
- Brachury expression on day 9.5 ([3]; EBs exposed to 12.5 pg/ml for 48 hrs, tested on day 9.5): did not show a positive signal
- efficiency for attachment and proliferation during induction of osteogenic differentiation, treated vs control EBs (EBs [4]; [5]): no differences were found
- osteoblast differentiation (mineralization by Alizarin Red and von Kossa staining) (EBs [4]; [5]): failed to differentiate into functional osteoblasts; also recorded: failed to undergo osteoblast differentiation
- osteoblast differentiation (mineralization by Alizarin Red and von Kossa staining) (EBs [4]; EBs pre-exposed to 12.5 pg/ml for 48 hrs, listed as lipopolysaccharides): absence of mineralization
- differentiation of exposed EBs into tissues of mesoderm origin (cardiomyocytes, blood or bone) (EBs [4]; LPS exposed EBs): failure to differentiate
